Test results taken from patent publication US7996068B2, “Surgical method and apparatus for identification of fluorescence” (The Board of Trustees of the Leland Stanford Junior …, priority 2007, dated 2011).

Experiments:
[1] = human, cited from earlier work
[2] = human, in vivo
Excerpt: In some embodiments, intravenous fluorescein can be used as the fluorescent agent.

In the case of `O=C1OC2(c3ccc(O)cc3Oc3cc(O)ccc32)c2ccccc21` [fluorescein], the “fraction of dose metabolized” value ([1]; 14 mg/kg dose, IV, within 1 hour of administration) is listed as 80%, the “time the urine remains slightly fluorescent post dose” value ([1]; post dose) is listed as 24 to 36 h and the volume of distribution [1] is listed as 0.5 L/kg. For the same molecule, the “concentration of fluorescein in urine” value [2] was “about 0.1 mg/ml”, the “concentration of fluorescein in urine relative to concentration in the blood” value [2] was “about 5 ×” and the “rate of drug excreted into the ureters” value [2] was 0.05 mg/min.
